BindingDB's records for doi:10.1021/acsmedchemlett.8b00333 (University of Calabria, 2019)

Test: Inverse agonist activity at GPR55 in human MDA-MB-231 cells assessed as reduction in cell viability incubated for 24 hrs by MTT assay

Compared with `O=C1C(Cl)=C(N2CCOCC2)C(=O)c2c(O)ccc(O)c21`, `O=C1C(Cl)=C(N2CCCC2)C(=O)c2c(O)ccc(O)c21` is higher in EC50: 2.7 µM for the first, > 10 µM for the second.

`CCCCN(CCCC)C1=C(Cl)C(=O)c2c(O)ccc(O)c2C1=O` and `CCN(CC)C1=C(Cl)C(=O)c2c(O)ccc(O)c2C1=O` cannot be ordered by EC50: > 20 µM for the first, > 20 µM for the second.

First: O=C1C(Cl)=C(N2CCCCC2)C(=O)c2c(O)ccc(O)c21
Second: COc1ccc(OC)c2c1C(=O)C(Cl)=C(N1CCCCC1)C2=O
The EC50 of the first is lower: 1.6 µM for the first, > 10 µM for the second.

`COc1ccc(OC)c2c1C(=O)C(Cl)=C(N1CCOCC1)C2=O` and `COc1ccc(OC)c2c1C(=O)C(Cl)=C(Cl)C2=O` [2,3-Dichloro-5,8-dimethoxy-[1,4]naphthoquinone] cannot be ordered by EC50: > 10 µM for the first, > 20 µM for the second.
